Results as given in patent US6900219B2, “ABCA-1 elevating compounds” (CV Therapeutics, Inc., priority 2002, dated 2005).

Each compound was assayed on ABCA-1 gene (assay: compounds tested and found to elevate cellular expression of the ABCA-1 gene (Examples 1-6; test not named)).
Format: cell-based
Protocol: Activity testing is conducted as described in those patents and patent applications referenced above, and in the Examples below, and by methods apparent to one skilled in the art.

Row | Compound | cellular expression of the ABCA-1 gene
1 | O=C(NC1=NCCS1)c1cc(C(F)(F)F)cc(C(F)(F)F)c1 [(3,5-bistrifluoromethylphenyl)-N-(1,3-thiazolin-2-yl)carboxamide] | elevate cellular expression of the ABCA-1 gene
2 | CCn1c2ccccc2c2cc(NC(=O)c3ccc(OC)cc3)ccc21 [N-(9-ethylcarbazol-3-yl)(4-methoxyphenyl)carboxamide] | elevate cellular expression of the ABCA-1 gene
3 | O=C(Nc1nc2c(Cl)cccc2s1)c1cccc(F)c1 [N-(4-chlorobenzothiazol-2-yl)(3-fluorophenyl)carboxamide] | elevate cellular expression of the ABCA-1 gene
4 | Clc1ccc(-c2cc(-c3ccccc3)[nH]n2)cc1 [3-(4-chlorophenyl)-5-phenylpyrazole] | elevate cellular expression of the ABCA-1 gene
5 | CC(C)(C)c1ccc(C(=O)NC2=NCCS2)cc1 [[4-(tert-butyl)phenyl]-N-(1,3-thiazolin-2-yl)carboxamide] | elevate cellular expression of the ABCA-1 gene
6 | COc1cccc(C(=O)NC2=NC(=O)CS2)c1 [(3-methoxyphenyl)-N-(4-oxo(1,3-thiazolin-2-yl))carboxamide] | elevate cellular expression of the ABCA-1 gene
7 | O=C(Nc1nc2ccccc2s1)c1sc2ccccc2c1Cl [N-benzothiazol-2-yl(3-chlorobenzo[b]thiophen-2-yl)carboxamide] | elevate cellular expression of the ABCA-1 gene
8 | O=C(Nc1ncc(-c2ccccc2)s1)c1ccc(OC(F)(F)F)cc1 [N-(5-phenyl(1,3-thiazol-2-yl))[4-(trifluoromethoxy)phenyl]carboxamide] | elevate cellular expression of the ABCA-1 gene
9 | O=C(Nc1nc2ccccc2s1)c1ccno1 [N-benzothiazol-2-ylisoxazol-5-ylcarboxamide] | elevate cellular expression of the ABCA-1 gene
10 | O=C(/C=C/c1ccccc1)NCCN(C(=O)Nc1cccc(C(F)(F)F)c1)c1ccccc1 [(2E)-3-phenyl-N-[2-(phenyl {N-[3-(trifluoromethyl)phenyl]carbamoyl}amino)ethyl]prop-2-enamide] | elevate cellular expression of the ABCA-1 gene
11 | O=C(Nc1ccc(Cl)cc1)Nc1ccccc1C(=O)O [2-{[N-(4-chlorophenyl)carbamoyl]amino}benzoic acid] | elevate cellular expression of the ABCA-1 gene
12 | 2-[(4-methylethylphenyl)carbonylamino]-1,3-thiazoline-4-carboxylic acid | elevate cellular expression of the ABCA-1 gene
13 | CCCN(C(=O)Nc1ccc(Br)cc1)C(C)c1nc2cc(Cl)ccc2c(=O)n1-c1ccc(C)cc1 (stereo not shown) [3-(4-bromo-phenyl)-1-[1-(7-chloro-4-oxo-3-p-tolyl-3,4-dihydro-quinazolin-2-yl)-ethyl]-1-propyl-urea] | elevate cellular expression of the ABCA-1 gene
14 | O=C(Nc1ccc(Cl)cc1)c1ccc2ccccc2c1 [N-(4-chlorophenyl)-2-naphthylcarboxamide] | elevate cellular expression of the ABCA-1 gene
15 | Cc1ccc2nc(-c3ccc(NC(=O)Cc4cccs4)cc3)sc2c1 [N-[4-(6-methylbenzothiazol-2-yl)phenyl]-2-(2-thienyl)acetamide] | elevate cellular expression of the ABCA-1 gene
16 | O=C(Nc1cccc(Cl)c1)c1ccc2ccccc2c1 [N-(3-chlorophenyl)-2-naphthylcarboxamide] | elevate cellular expression of the ABCA-1 gene
17 | O=C(NC1=NC(C(=O)O)CS1)c1cc(C(F)(F)F)cc(C(F)(F)F)c1 (stereo not shown) [2-[(3,5-bistrifluoromethylphenyl)carbonylamino]-1,3-thiazoline-4-carboxylic acid] | elevate cellular expression of the ABCA-1 gene
18 | O=C1CSC(NC(=O)c2ccc(F)c(F)c2)=N1 [(3,4-difluorophenyl)-N-(4-oxo(1,3-thiazolin-2-yl))carboxamide] | elevate cellular expression of the ABCA-1 gene
19 | O=C(Nc1nc2ccccc2s1)c1ccncc1 [N-benzothiazol-2-yl-4-pyridylcarboxamide] | elevate cellular expression of the ABCA-1 gene
20 | Cc1ccc(C(=O)NC2=NCCS2)cc1 [(4-methylphenyl)-N-(1,3-thiazolin-2-yl)carboxamide] | elevate cellular expression of the ABCA-1 gene
21 | CC(C)(C)c1ccc(C(=O)NC2=NC(C(=O)O)CS2)cc1 (stereo not shown) [2-{[4-(tert-butyl)phenyl]carbonylamino}-1,3-thiazoline-4-carboxylic acid] | elevate cellular expression of the ABCA-1 gene
22 | CC(C)(C)c1ccc(C(=O)N(CCc2ccccn2)Cc2ccccc2[N+](=O)[O-])cc1 [[4-(tert-butyl)phenyl]-N-[(2-nitrophenyl)methyl]-N-(2-(2-pyridyl)ethyl)carboxamide] | elevate cellular expression of the ABCA-1 gene

Row | Compound | cellular expression of the ABCA-1 gene
23 | CCc1c(C(=O)NC(C)CCCN(CC)CC)cnn1-c1nc(-c2ccc(Br)cc2)cs1 (stereo not shown) [N-[4-(diethylamino)-1-methylbutyl]{1-[4-(4-bromophenyl)(1,3-thiazol-2-yl)]-5-ethylpyrazol-4-yl}carboxamide] | elevate cellular expression of the ABCA-1 gene
24 | [4-(methylethyl)phenyl]-N-(4-oxo(1,3-thiazolin-2-yl))carboxamide | elevate cellular expression of the ABCA-1 gene
25 | CCCc1c(C(=O)Nc2nc3ccccc3s2)cnn1-c1ccc(Cl)cc1 [N-benzothiazol-2-yl[1-(4-chlorophenyl)-5-propylpyrazol-4-yl]carboxamide] | elevate cellular expression of the ABCA-1 gene
26 | Cc1ccc(NC(=O)Nc2cccc(Cl)c2)cc1C [N-(3,4-dimethylphenyl)[(3-chlorophenyl)amino]carboxamide] | elevate cellular expression of the ABCA-1 gene
27 | Cc1cc(C(=O)c2cc3ccccc3o2)ccc1Cl [benzo[d]furan-2-yl 4-chloro-3-methylphenyl ketone] | elevate cellular expression of the ABCA-1 gene
28 | O=C(Nc1ccc2c(c1)OCCO2)Nc1ccc([N+](=O)[O-])cc1Cl [N-(2H,3H-benzo[e]1,4-dioxin-6-yl)[(2-chloro-4-nitrophenyl)amino]carboxamide] | elevate cellular expression of the ABCA-1 gene
29 | CCC(c1nc2ccccc2c(=O)n1-c1ccc(C)c(C)c1)N(Cc1ccccc1)C(=O)Nc1ccc(OC)cc1 (stereo not shown) [N-{[3-(3,4-dimethylphenyl)-4-oxo(3-hydroquinazolin-2-yl)]propyl}[(4-methoxyphenyl)amino]-N-benzylcarboxamide] | elevate cellular expression of the ABCA-1 gene
30 | O=C(NC1=NCCS1)c1ccccc1 [phenyl-N-(1,3-thiazolin-2-yl)carboxamide] | elevate cellular expression of the ABCA-1 gene
31 | CC(c1nc2ccccc2c(=O)n1-c1ccc2ccccc2c1)N(CCN(C)C)C(=O)Nc1ccc(F)cc1F (stereo not shown) [[(2,4-difluorophenyl)amino]-N-[2-(dimethylamino)ethyl]-N-[(3-(2-naphthyl)-4-oxo(3-hydroquinazolin-2-yl))ethyl]carboxamide] | elevate cellular expression of the ABCA-1 gene
32 | Cc1onc(-c2c(F)cccc2Cl)c1C(=O)Nc1nc2ccccc2s1 [N-benzothiazol-2-yl[3-(6-chloro-2-fluorophenyl)-5-methylisoxazol-4-yl]carboxamide] | elevate cellular expression of the ABCA-1 gene
33 | CC(C)(C)c1ccc(C(=O)Nc2nc(-c3ccc(Cl)cc3)cs2)cc1 [[4-(tert-butyl)phenyl]-N-[4-(4-chlorophenyl)(1,3-thiazol-2-yl)]carboxamide] | elevate cellular expression of the ABCA-1 gene
34 | COc1cc(C(=O)NC2=NCCS2)cc(OC)c1OC [(3,4,5-trimethoxyphenyl)-N-(1,3-thiazolin-2-yl)carboxamide] | elevate cellular expression of the ABCA-1 gene
35 | O=C(NC1=NCCS1)c1ccc(F)c(F)c1 [(3,4-difluorophenyl)-N-(1,3-thiazolin-2-yl)carboxamide] | elevate cellular expression of the ABCA-1 gene
36 | O=C(Nc1cccc(Cl)c1)Nc1nc2ccccc2s1 [N-benzothiazol-2-yl[(3-chlorophenyl)amino]carboxamide] | elevate cellular expression of the ABCA-1 gene
37 | O=C(NC1=NCCS1)c1ccc(Cl)c(Cl)c1 [(3,4-dichlorophenyl)-N-(1,3-thiazolin-2-yl)carboxamide] | elevate cellular expression of the ABCA-1 gene
38 | CCc1c(C(=O)NC23CC4CC(CC(C4)C2)C3)cnn1-c1nc(-c2ccc(C)cc2)cs1 [N-adamantanyl {5-ethyl-1-[4-(4-methylphenyl)(1,3-thiazol-2-yl)]pyrazol-4-yl}carboxamide] | elevate cellular expression of the ABCA-1 gene
39 | (2,4-difluorophenyl)-N-(4-naphthyl(1,3-thiazol-2-yl))carboxamide | elevate cellular expression of the ABCA-1 gene
40 | O=C1CSC(NC(=O)c2cccc(Cl)c2)=N1 [(3-chlorophenyl)-N-(4-oxo(1,3-thiazolin-2-yl))carboxamide] | elevate cellular expression of the ABCA-1 gene
41 | N-(4-naphthyl(1,3-thiazol-2-yl))(4-phenylphenyl)carboxamide | elevate cellular expression of the ABCA-1 gene
42 | CC(c1nc2ccccc2c(=O)n1-c1ccc2ccccc2c1)N(CCN(C)C)C(=O)Nc1cccc(C#N)c1 (stereo not shown) [N-[2-(dimethylamino)ethyl][(3-cyanophenyl)amino]-N-[(3-(2-naphthyl)-4-oxo(3-hydroquinazolin-2-yl))ethyl]carboxamide] | elevate cellular expression of the ABCA-1 gene
43 | O=C(Nc1ncc(-c2ccc(F)cc2)s1)c1ccco1 [N-[5-(4-fluorophenyl)(1,3-thiazol-2-yl)]-2-furylcarboxamide] | elevate cellular expression of the ABCA-1 gene
